From US9661850B2, “Methods of soil pest control” (Syngenta Participations AG, priority 2012, dated 2017)

Legend:
Assay type in all cases: in vivo
[1] = system: Diabrotica balteata (Corn Rootworm); test: Diabrotica balteata seed treatment test, larval mortality; details: treated corn seeds, L3 larvae, 6 days incubation
Experimental: Diabrotica Balteata (Corn Rootworm)
Treated corn seeds are sown in a 350 ml pot filled with soil. Two weeks after sowing corn seedlings are infested with L3 larvae of Diabrotica balteata. After an incubation period of 6 days survived larvae are counted.

Agriotes sp. (Wireworms) [2] = test: Agriotes sp. (wireworms) seed treatment test; details: treated corn seeds, 1 mg/seed, 14 days incubation
Experimental: Treated corn seeds are sown in a 350 ml pot filled with soil. One week after sowing corn seedlings are infested with wireworms. After an incubation period of 14 days healthy and affected larvae (intoxicated, moribund, dead) are counted.

Agriotes sp. (Wireworms) [3] = test: Agriotes sp. (wireworms) drench soil test with maize seedlings; details: 14 days after treatment
Experimental: Plastic beakers are prepared with 100 ml drench soil. Afterwards 12.5 ml compound solution is mixed in each plastic beaker and three maize seedlings are added. At the same day five wireworms are placed into each plastic beaker and these are covered up with a lid. Fourteen days after treatment the number of dead and moribund wireworms are evaluated. Wireworms are assessed as moribund if they were not able to bury into the soil in one hour after having been put onto the soil surface.

[4] = system: Diabrotica balteata (Corn Rootworm); test: Diabrotica balteata seed treatment, plant damage on maize; details: L2 larvae, 6 days after infestation
Experimental: (§1) Diabrotica Balteata (Corn Rootworm):
(§2) Plastic boxes (17×27×22 cm) are filled with 8 L of drench soil and 6 maize seeds are sown into a furrow. 10 ml of spray solution are applied with a hand sprayer into the furrow on the planted seeds and the furrow is closed afterwards. Two weeks after sowing each box is infested with 15 Diabrotica balteata L2 larvae. 6 days after infestation the plant damage is assessed. Plants are considered as either damaged or healthy. Dead plants, plants with hollow stems or entry holes are considered as damaged. The test is carried out with five replicates (boxes) per treatment. For in-furrow application the control is replicated five times with the application of water.
For the assessment as seed treatment 6 treated seeds are planted 0.5 cm deep into the soil. Exactly the same setup is used as with the in furrow treatment described above except that no spray solution is applied. For seed treatment the control is replicated five times without seed coating.
(§3) As six seeds are used per replicate, the total amount of active ingredient applied in furrow is six times the rate per seed in the seed treatment test.

[5] = system: Diabrotica balteata (Corn Rootworm); test: Diabrotica balteata in-furrow application, plant damage on maize; details: L2 larvae, 6 days after infestation
Experimental: as §1, §2, §3

SMILES	% Larval mortality ([1]; 0.3 mg/seed)	% Larval mortality ([1]; 1 mg/seed)	other results
Cc1cc(C2=NOC(c3cc(Cl)c(Cl)c(Cl)c3)(C(F)(F)F)C2)ccc1C(=O)NC1CON(CC(F)(F)F)C1=O (mixture of isomers) [Compound A1]	87%		
Cc1cc(C2=NOC(c3cc(Cl)cc(Cl)c3)(C(F)(F)F)C2)ccc1C(=O)NC1CON(C)C1=O (mixture of isomers) [Compound A2]	96%		
CCN1OCC(NC(=O)c2ccc(C3=NOC(c4cc(Cl)c(F)c(Cl)c4)(C(F)(F)F)C3)cc2C)C1=O (mixture of isomers) [Compound A5]	96%		
Cc1cc(C2=NOC(c3cc(Cl)cc(Cl)c3)(C(F)(F)F)C2)ccc1C(=O)NC1CON(CC(F)F)C1=O (mixture of isomers) [Compound A6]	87%		
Cc1cc(C2=NOC(c3cc(Cl)cc(Cl)c3)(C(F)(F)F)C2)ccc1C(=O)NC1CON(CC(F)(F)F)C1=O (mixture of isomers) [Compound A8]	79%		% Mortality and moribund/intoxicated (Agriotes sp. (Wireworms) [2]): 100%
CCN1OCC(NC(=O)c2ccc(C3=NOC(c4cc(Cl)cc(Cl)c4)(C(F)(F)F)C3)cc2C)C1=O (mixture of isomers) [Compound A9]			% Moribund & dead (Agriotes sp. (Wireworms) [3]; application rate 0.8 ppm): 50%; % Moribund & dead (Agriotes sp. (Wireworms) [3]; application rate 3 ppm): 75%; % Moribund & dead (Agriotes sp. (Wireworms) [3]; application rate 12.5 ppm): 100%; % Mortality and moribund/intoxicated (Agriotes sp. (Wireworms) [2]): 25%
CCN1OCC(NC(=O)c2ccc(C3=NOC(c4cc(C(F)(F)F)c(Cl)c(C(F)(F)F)c4)(C(F)(F)F)C3)cc2C)C1=O (mixture of isomers) [Compound A15]	100%		
CCN1OCC(NC(=O)c2ccc(C3=NOC(c4cc(F)cc(Cl)c4)(C(F)(F)F)C3)cc2C)C1=O (mixture of isomers) [Compound A22]		92%	
CCN1OCC(NC(=O)c2ccc(C3=NOC(c4cc(Cl)c(Cl)c(Cl)c4)(C(F)(F)F)C3)cc2C)C1=O (mixture of isomers) [Compound A23]		100%	
CCN1OCC(NC(=O)c2ccc(C3=NCC(c4cc(Cl)c(Cl)c(Cl)c4)(C(F)(F)F)C3)cc2C)C1=O (racemic) [Compound C3]		100%	
Cc1cc(N2CCC(c3cc(Cl)cc(Cl)c3)(C(F)(F)F)C2)ccc1C(=O)NC1CON(CC(F)(F)F)C1=O (racemic) [Compound D1]	83%		
Cc1cc(C2=NO[C@@](c3cc(Cl)cc(Cl)c3)(C(F)(F)F)C2)ccc1C(=O)N[C@@H]1CON(CC(F)(F)F)C1=O [Compound 1]			Reduction in plant damage compared to control (seed treatment) ([4]; 0.1 mg AI per seed): 25%; Reduction in plant damage compared to control (seed treatment) ([4]; 0.5 mg AI per seed): 50%; Reduction in plant damage compared to control (in-furrow application) ([5]; 0.1 mg AI per seed): 67%; Reduction in plant damage compared to control (in-furrow application) ([5]; 0.5 mg AI per seed): 95%
CCN1OC[C@@H](NC(=O)c2ccc(C3=NO[C@@](c4cc(Cl)c(F)c(Cl)c4)(C(F)(F)F)C3)cc2C)C1=O [Compound 2]			Reduction in plant damage compared to control (seed treatment) ([4]; 0.1 mg AI per seed): 35%; Reduction in plant damage compared to control (seed treatment) ([4]; 0.5 mg AI per seed): 75%; Reduction in plant damage compared to control (in-furrow application) ([5]; 0.1 mg AI per seed): 95%; Reduction in plant damage compared to control (in-furrow application) ([5]; 0.5 mg AI per seed): 91%
CCN1OC[C@@H](NC(=O)c2ccc(C3=NO[C@@](c4cc(Cl)cc(Br)c4)(C(F)(F)F)C3)cc2C)C1=O [Compound A11]		100%	
CCN1OC[C@@H](NC(=O)c2ccc(C3=NO[C@@](c4cc(Cl)cc(C(F)(F)F)c4)(C(F)(F)F)C3)cc2C)C1=O [Compound A12]	88%		
Cc1cc(C2=NO[C@@](c3cc(Cl)cc(Cl)c3)(C(F)(F)F)C2)ccc1C(=O)N[C@@H]1CON(CC(F)F)C1=O [Compound A14]		100%	
Cc1cc(C2=NO[C@@](c3cc(Cl)cc(Cl)c3)(C(F)(F)F)C2)ccc1C(=O)N[C@@H]1CON(CC(F)(F)F)C1=O [Compound A16]		100%	% Moribund & dead (Agriotes sp. (Wireworms) [3]; application rate 0.8 ppm): 100%; % Moribund & dead (Agriotes sp. (Wireworms) [3]; application rate 3 ppm): 100%; % Moribund & dead (Agriotes sp. (Wireworms) [3]; application rate 12.5 ppm): 100%; % Mortality and moribund/intoxicated (Agriotes sp. (Wireworms) [2]): 100%
CCN1OC[C@@H](NC(=O)c2ccc(C3=NO[C@@](c4cc(Cl)cc(Cl)c4)(C(F)(F)F)C3)cc2C)C1=O [Compound A17]		83%	% Moribund & dead (Agriotes sp. (Wireworms) [3]; application rate 0.8 ppm): 100%; % Moribund & dead (Agriotes sp. (Wireworms) [3]; application rate 3 ppm): 100%; % Moribund & dead (Agriotes sp. (Wireworms) [3]; application rate 12.5 ppm): 100%; % Mortality and moribund/intoxicated (Agriotes sp. (Wireworms) [2]): 80%
CCN1OC[C@@H](NC(=O)c2ccc(C3=NO[C@@](c4cc(Cl)c(F)c(Cl)c4)(C(F)(F)F)C3)cc2C)C1=O [Compound A18]	96%		
CCN1OC[C@@H](NC(=O)c2ccc(C3=NO[C@@](c4cc(Cl)c(Cl)c(Cl)c4)(C(F)(F)F)C3)cc2C)C1=O [Compound A19]		100%	
Cc1cc(C2=NO[C@@](c3cc(Cl)c(F)c(Cl)c3)(C(F)(F)F)C2)ccc1C(=O)N[C@@H]1CON(CC(F)(F)F)C1=O [Compound A20]		100%	
Cc1cc(C2=NO[C@@](c3cc(Cl)c(Cl)c(Cl)c3)(C(F)(F)F)C2)ccc1C(=O)N[C@@H]1CON(CC(F)(F)F)C1=O [Compound A21]		100%	
Cc1cc(C2=NCC(c3cc(Cl)cc(Cl)c3)(C(F)(F)F)C2)ccc1C(=O)NC1CON(CC(F)(F)F)C1=O (stereo not drawn) [Compound C1]		100%	
CCN1OCC(NC(=O)c2ccc(C3=NCC(c4cc(Cl)cc(Cl)c4)(C(F)(F)F)C3)cc2C)C1=O (stereo not drawn) [Compound C2]		50%	
